According to patent publication US20240174634A1, “Aldehyde Dehydrogenase Inhibitors and Their Therapeutic Use” (priority 2020, published 2024):

What was measured:
ALDH1A3 [1] = target: T1, ALDH1A3 (Homo sapiens, UniProt P47895); assay: ALDH1A3 cellular assay (ALDEFLUOR) in WM266.4 melanoma cells; assay type: cell-based; conditions: WM266.4 cells; 60 min incubation; percentage of ALDH-positive cells
T1 sequence (P47895 1-512): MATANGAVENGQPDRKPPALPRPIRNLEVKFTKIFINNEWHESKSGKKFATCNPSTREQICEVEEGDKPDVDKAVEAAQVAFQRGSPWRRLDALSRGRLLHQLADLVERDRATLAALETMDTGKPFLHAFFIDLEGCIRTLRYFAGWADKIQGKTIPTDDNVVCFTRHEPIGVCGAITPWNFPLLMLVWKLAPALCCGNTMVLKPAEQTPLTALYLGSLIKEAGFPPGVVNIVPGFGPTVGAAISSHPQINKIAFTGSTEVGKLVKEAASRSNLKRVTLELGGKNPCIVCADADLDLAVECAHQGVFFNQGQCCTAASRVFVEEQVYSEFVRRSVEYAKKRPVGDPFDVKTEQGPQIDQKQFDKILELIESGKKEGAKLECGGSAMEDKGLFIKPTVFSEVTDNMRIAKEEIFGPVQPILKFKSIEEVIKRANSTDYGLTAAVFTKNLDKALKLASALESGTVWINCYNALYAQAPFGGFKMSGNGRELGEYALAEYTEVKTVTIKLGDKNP
Excerpt: Materials: WM266.4 cells were procured from ATCC. (WM266-4 is a metastatic human melanoma cell line.) The ALDEFLUOR™ Assay kit (cat. no. 01700) and Aldefluor buffer (cat. no. 01702) were procured from StemCell Technologies. Dulbecco's Modified Eagle Medium (DMEM), FluoroBrite DMEM, Glutamax and Hoechst 33342 were purchased from ThermoFisher. Verapamil was obtained from Fluorochem. FBS was obtained from Sigma. Echo Qualified 384-well low-dead-volume microplate and Echo Qualified 384-well polypropylene microplate were purchased from Labcyte, and the Microclear black sterile polystyrene microplate from Greiner Bio-One.
Method: Intracellular inhibition of ALDH1A3 was assessed using the ALDEFLUOR™ Assay kit. The activated ALDEFLUOR™ reagent, BODIPY-aminoacetaldehyde (BAAA), is a fluorescent non-toxic substrate for ALDH enzymes, which freely diffuses into intact and viable cells. In the presence of ALDH enzyme activity, BAAA is converted into BODIPY-aminoacetate (BAA), which is retained inside the cells. The amount of fluorescent reaction product is proportional to the ALDH activity in the cells and is measured using an imaging cytometer. Active efflux of the reaction product is inhibited by an efflux inhibitor (Verapamil) in the ALDEFLUOR™ Assay Buffer.
A frozen vial of cells was recovered into a T225 flask containing DMEM, high glucose, 10% FBS, 1% glutamax, 1% HEPES. The following day, media was changed and cells were ready for assay from 72 hours after recovery. Cells were transferred into FluoroBrite DMEM (plus 10% FBS, 1% glutamax and 1% HEPES) and diluted to 2.5×10^5 cells/mL. 30 μL of cells were added to each well to give 7500 cells/well and then incubated overnight at 37° C., 5% CO2. After overnight incubation, the media was aspirated and replaced by 20 μL substrate/Hoechst buffer solution. Each plate requires 9 mL of solution comprising, 9 mL ALDEFLUOR assay buffer, 18 μL BAAA substrate (final concentration 500 nM), 4.5 μL Hoechst 33342 (final concentration 5 μg/mL) and 4.5 μL Verapamil (final concentration 50 μM). Compounds were prepared for dosing using the Echo acoustic dispenser by aliquoting into a source plate and dosed directly onto the cell assay plate to give a 10 point dose response per compound ranging from 10 μM to 0.0005 μM final concentration in 3-fold dilution steps. Plates were then incubated for 60 minutes at 37° C., 5% CO2. The buffer was then aspirated and cells washed twice in ice-cold PBS. Plates were kept on ice and 30 μL of cold Aldefluor buffer with 50 μM verapamil dispensed per well. The plates were then imaged using the CellInsight fluorescent microscope. Hoechst fluorescence in the 405 nm channel indicated the nuclear area and this was used to define nuclei and then the surrounding cellular area. Fluorescence in the 488 nm channel of the defined cellular area indicates ALDH1A3 activity. The percentage of cells positive for ALDH activity was plotted versus compound concentration to generate EC50 values using curve fitting parameters defined in Dotmatics software.

ALDH1A3 [2] = target: T1, ALDH1A3; assay: Primary biochemical assay, NAD(P)H-Glo Detection System; parameters: His-tag; made in house; host or cells: E. coli Rosetta (DE3); conditions: 30 min pre-incubation, propionaldehyde and NAD at Km
Excerpt: Cloning: Open reading frames corresponding to the protein coding sequences of full length human ALDH1A1 (Uniprot ID P00352), ALDH1A2 (094788) and ALDH1A3 (P47895) were polymerase chain reaction (PCR) amplified from human cDNA and inserted into the multi-cloning sites of the commercially available (Novagen) E. coli expression vectors pET47b (ALDH1A1, EcoRI restriction site; ALDH1A2, BamHI and EcoRI sites) or pET28a (ALDH1A3, NdeI and BamHI sites), using standard molecular genetic techniques. Recombinant DNA products were sequence verified prior to use in expression studies.
Expression: Expression constructs were transformed into the E. coli strain Rosetta (DE3) (Merck) and individual colonies used to inoculate 10 mL lysogen broth (LB) medium supplemented with kanamycin and chloramphenicol at 50 μg/mL and 34 μg/mL, respectively. Cultures were grown to saturation overnight at 37° C., prior to being used to sub-inoculate fresh 1 L LB medium cultures (plus antibiotics, as before). 1 L cultures were grown at 37° C., 200 rpm, throughout the day until the optical density at 600 nm (OD600) reached ˜0.8, at which point growth temperature was reduced to 18° C. and 1 mM isopropyl β-d-1-thiogalacto pyranoside (IPTG) added to induce protein expression.
Cultures were left overnight (at least 16 h) under these conditions and the following day harvested by centrifugation (4000 G, 10 minutes). Culture supernatant was discarded and cell pellets stored at −80° C. until further processing.
Purification: Cell pellets were thawed on ice, re-suspended in Ni Affinity Buffer A (20 mM HEPES pH 7.5, 300 mM NaCl, 20 mM imidazole, 1 mM tris(2-carboxyethyl)phosphine (TCEP)) with protease inhibitors (cOmplete Ultra protease inhibitor, Roche), and lysed by sonication. Lysates were clarified by centrifugation at 18,000 G, 4° C., for 40 minutes, and loaded directly onto a pre-equilibrated (Buffer A) 5 mL HisTrap Fast Flow column (GE Healthcare) by way of an AKTA Fast Protein Liquid Chromatography (FPLC) system. The column was sequentially treated with 6 column volumes (CV) 100% Buffer A, 8 CV of 90% Buffer A:10% Buffer B (20 mM 4-(2-hydroxyethyl)-1-piperazineethanesulfonic acid (HEPES) pH 7.5, 300 mM NaCl, 500 mM imidazole, 1 mM TCEP) and finally a linear gradient from 10-70% Buffer B over 8 CV to elute recombinant His-tagged protein. Relevant fractions (as measured by 280 nm absorbance) collected during elution were pooled and subjected to further purification by size exclusion chromatography (Superdex 200 26/600, GE Healthcare, running buffer 20 mM 2-(carbamoylmethylamino)ethanesulfonic acid (ACES) pH 7.5, 1 mM TCEP). Relevant fractions from this step were pooled, aliquoted, and stored at −80° C. until required for compound profiling assays.
Materials: ALDH2 was purchased from Abnova. Tris(hydroxymethyl)aminomethane (Tris) was purchased from MP Biomedicals. TCEP, ethylenediaminetetraacetic acid (EDTA), propionaldehyde, DMSO and Tween-20 were purchased from Sigma. Nicotinamide adenine dinucleotide (NAD) was obtained from Abcam. The NAD(P)H-Glo™ Detection System was purchased from Promega. White, non-binding surface, 384 well plates were supplied by Corning (#3574).
Method: Inhibition of ALDH1A3 was assessed using the NAD(P)H-Glo™ Detection System (Cat. No. G9062) from Promega. This assay detects the production of NADH from NAD by ALDH1A3 via the coupled enzymatic conversion of a proluciferin reductase substrate to generate a luminescent signal. Inhibition of ALDH1A3 by small molecule inhibitors will result in reduction or abrogation of luminescence signal increase above background. Inhibition of ALDH1A1, ALDH1A2 and ALDH2 (selectivity assays) were assessed using the same assay.
Compounds were dosed into Corning 384 well assay plates using an Echo acoustic dispenser to give 10 point curves in a 3-fold dilution series. Compounds were dispensed from a 20 mM DMSO stock and initially screened at a top concentration of 20 μM (ALDH1A3) or 250 μM (ALDH1A1, ALDH1A2 & ALDH2). […]

## O=C1CCc2cc(NC(=O)c3ncccc3-c3cccc(F)c3)ccc2N1 [ALDHI-1020, 3-(3-fluorophenyl)-N-(2-oxo-3,4-dihydro-1H-quinolin-6-yl)pyridine-2-carboxamide]
ALDH1A3 [1]
  IC50: 1 to 10 µM
ALDH1A3 [2]
  IC50: 1 to 10 µM
